Measurements reported in PubChem BioAssay AID2060627 (Molecular Pharmacology Branch, DTP, NCI, 2025).
pIC50: −log10 of the molar value.

Tested on: 156681-154-R-J1-PDC complex spheroid viability
Test: Anticancer human tumor 156681-154-R-J1-PDC patient-derived melanoma cell line growth inhibition [CLK]
Settings: for pIC50: curve of first compound; for viability, T/C: stronger effect = lower value
From the text: A high-throughput screen of multi-cell type tumor spheroids was designed to identify active combinations of […] and targeted small molecules. Complex spheroids include a stromal component modeled by human endothelial cells (HUVEC) and fibroblasts modeled by human mesenchymal stem cells (MSCs). The concentration ranges selected for each drug and investigational agent were based upon clinically achievable concentrations if the clinical Cmax of the agent was known.
Compounds. The drugs and investigational agents: cirtuvivint (SM08502; NSC835563), CC-671 (NSC850746), vemurafenib (NSC761431), tapotoclax (NSC804041), sotorasib (NSC818433), adagrasib (NSC831453), MRTX-1133 (NSC836407), BAY2416964 (NSC825713), copanlisib (NSC816437), inavolisib (NSC800729), abemaciclib (NSC768073), osimertinib (NSC779217), entinostat (NSC756642), eltanexor (KPT-8602, NSC794443), venetoclax (NSC766270), ceralasertib (NSC777638), bortezomib (NSC756655), olaparib (NSC753686), talazoparib (NSC767125), alisertib (NSC759677), peposertib (NSC802822), gemcitabine (NSC613327), 5-fluorouracil (NSC19893), SN-38 (NSC673596), oxaliplatin (NSC266046), paclitaxel (NSC125973), and doxorubicin (NSC123127), were obtained from the National Cancer Institute (NCI) Developmental Therapeutics Program Chemical Repository. The FDA-approved anticancer drug set is available from the Developmental Therapeutics Program at https://dtp.cancer.gov/organization/dscb/obtaining/available plates.htm. […] The stock solutions were prepared in dimethyl sulfoxide (DMSO, Sigma-Aldrich, St. Louis, MO, cat. D2650), except for the platinum complexes which were prepared in saline (Quality Biological, Gaithersburg, MD, cat. 114-055-101), at 800-fold the tested concentration and stored at -70 degrees C prior to their use. All drugs and investigational agents were tested over a range starting from a high concentration at or near the clinical Cmax and decreasing in half-log increments. If the clinical Cmax for an agent had not been determined, the highest concentration tested was 10 microM.
Cell Culture. All cells were maintained in an incubator at 37 degrees C and 5% CO2 with 95% humidity. The PDC lines were cultured according to standard operating procedures established by the NCI PDMR. Briefly, all PDCs were thawed and cultured in Matrigel-coated flasks prepared with a working solution of 1X Ham's F-12 nutrient mix, without supplementation (Invitrogen, Waltham, MA, cat. 11765054), 100 U/mL penicillin-streptomycin (Invitrogen, cat. 15140122), and 2.5% Matrigel (Corning Inc., Corning, NY, cat. 354248) for the first three passages. The 947758-054-R-J2-PDC line was cultured in 6B/Colon 1A media, which includes advanced DMEM/F-12 (Thermo Fisher Scientific, cat. 12634028), 10 mM HEPES (Thermo Fisher Scientific, cat. 15630080), 1X GlutaMAX supplement (Thermo Fisher Scientific, cat. 35050061), 0.1 mg/mL primocin (InvivoGen, cat. ant-pm-2), 10% defined fetal bovine serum, heat inactivated (HyClone Laboratories Inc., cat. SH30070.03HI), 1.25 mM N-Acetyl-L-cysteine (Sigma-Aldrich, cat. A9165), 10 mM nicotinamide (Sigma-Aldrich, cat. N0636), 1X B-27 supplement (Thermo Fisher Scientific, cat. 17504044), 1X N-2 supplement (Thermo Fisher Scientific, cat. 17502048), and 10 microM Y-27632 dihydrochloride (Tocris Bioscience, cat. 1254). The 876862-298-R-J1-PDC was cultured in 6E media, which includes all 6B/Colon 1A media components plus 50% L-WRN conditioned media (ATCC, cat. CRL-3276), 50 ng/mL recombinant human EGF recombinant protein (hEGF; Thermo Fisher Scientific, cat. PHG0311), 10 ng/mL recombinant human fibroblast growth factor 10 (hGFG-10; PeproTech, cat. 100-26), 1 ng/mL recombinant human fibroblast growth factor 2 (hFGF-2; PeproTech, cat. 100-18B), and 1 µM prostaglandin E2 (PGE2; Tocris, cat. 2296). The 227483-062-R1-J1-PDC line was cultured in Panc media, containing all 6E components except hFGF-2, with the addition of 500 nM SB-431542 (Selleckchem, cat. S1067) and 10 nM gastrin (Tocris, cat. 3006). […]
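Also: spheroids exposed to the agents for seven days.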
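For viability, T/C in this document: 100% = DMSO vehicle control viability.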

In the case of Nc1ccccc1NC(=O)c1ccc(CNC(=O)OCc2cccnc2)cc1 + CN1CCN(c2cc(C(=O)Nc3cc4cc(-c5cnn(C)c5)ccc4cn3)ccn2)CC1, the pIC50 (second compound 0.0316 µM) was 6.25, the pIC50 (second compound 0.1 µM) was 6.30 and the pIC50 (second compound 0.316 µM) was over 7.50. The pIC50 (second compound 1 µM) was over 7.50, the pIC50 (second compound 3.16 µM) was over 7.50 and the pIC50 (second compound 10 µM) was over 7.50. For the same molecule, the viability, T/C (second compound 0.0316 µM, first compound 0.0316 µM) was 104%, the viability, T/C (second compound 0.0316 µM, first compound 0.1 µM) was 86.9% and the viability, T/C (second compound 0.0316 µM, first compound 0.316 µM) was 69.7%. The viability, T/C (second compound 0.0316 µM, first compound 1 µM) was 33.3%, the viability, T/C (second compound 0.0316 µM, first compound 3.16 µM) was 5.05% and the viability, T/C (second compound 0.0316 µM, first compound 10 µM) was 0.29%. The viability, T/C (second compound 0.1 µM, first compound 0.0316 µM) was 95.2%, the viability, T/C (second compound 0.1 µM, first compound 0.1 µM) was 89.5% and the viability, T/C (second compound 0.1 µM, first compound 0.316 µM) was 65.2%. The viability, T/C (second compound 0.1 µM, first compound 1 µM) was 27.4%, the viability, T/C (second compound 0.1 µM, first compound 3.16 µM) was 7.52% and the viability, T/C (second compound 0.1 µM, first compound 10 µM) was 1.57%. It also gave a viability, T/C (second compound 0.316 µM, first compound 0.0316 µM) of 23.7%, a viability, T/C (second compound 0.316 µM, first compound 0.1 µM) of 20.4% and a viability, T/C (second compound 0.316 µM, first compound 0.316 µM) of 19.8%. For the same molecule, the viability, T/C (second compound 0.316 µM, first compound 1 µM) was 14.6%, the viability, T/C (second compound 0.316 µM, first compound 3.16 µM) was 1.03% and the viability, T/C (second compound 0.316 µM, first compound 10 µM) was 0.71%. The viability, T/C (second compound 1 µM, first compound 0.0316 µM) was 0.22%, the viability, T/C (second compound 1 µM, first compound 0.1 µM) was 1.38% and the viability, T/C (second compound 1 µM, first compound 0.316 µM) was 0.48%. The viability, T/C (second compound 1 µM, first compound 1 µM) was 0.97%, the viability, T/C (second compound 1 µM, first compound 3.16 µM) was 2.99% and the viability, T/C (second compound 1 µM, first compound 10 µM) was 1.95%. It also gave a viability, T/C (second compound 3.16 µM, first compound 0.0316 µM) of 0.06%, a viability, T/C (second compound 3.16 µM, first compound 0.1 µM) of 0.81% and a viability, T/C (second compound 3.16 µM, first compound 0.316 µM) of 0.11%. It also gave a viability, T/C (second compound 3.16 µM, first compound 1 µM) of 0.92%, a viability, T/C (second compound 3.16 µM, first compound 3.16 µM) of 1.15% and a viability, T/C (second compound 3.16 µM, first compound 10 µM) of 1.84%. It also gave a viability, T/C (second compound 10 µM, first compound 0.0316 µM) of 0.03%, a viability, T/C (second compound 10 µM, first compound 0.1 µM) of 0.96% and a viability, T/C (second compound 10 µM, first compound 0.316 µM) of 0.58%. For the same molecule, the viability, T/C (second compound 10 µM, first compound 1 µM) was 0.15%, the viability, T/C (second compound 10 µM, first compound 3.16 µM) was 3.86% and the viability, T/C (second compound 10 µM, first compound 10 µM) was 2.47%.
